This note sets out measurements from patent US8541670B2, “Compositions and methods for inhibiting tumor cell growth” (priority 2007, dated 2013).

The conditions of data set [1]: mouse, in vivo.
The next data set concerns the target T1, p70S6K (Homo sapiens, UniProt P23443).
T1 construct: endogenous in cells
Briefly: Cell-based kinase assay, phosphorylation of intracellular substrate (Ser-235/236 S6). The procedure: As a specific substrate, the phosphorylation level of GSK-3[…] at Ser-9 was also evaluated. […] The decrease was specific to the AKT phosphorylation site on GSK-3[…] at Ser-9, since a change in the phosphorylation level of GSK-3[…] at Tyr-216 or GSK-3[…] at Tyr-279 was not observed. Moreover, the in vivo reduction of the phosphorylation of AKT substrates was more obvious at the injection site, since a significant change in the phosphorylation of AKT substrates in the frontal cortex or cerebellum between the two hemispheres was not observed. […] To test the specificity/selectivity of ZaTa as the inhibitor of AKT1 versus the other major kinases, a series of in vitro kinase assays was performed at IC50 for AKT1 and at ten times higher concentrations. […]
Phosphorylation sites for kinases analyzed herein included Ser-235/236 S6 (a substrate for p70S6K), Tyr-207 CRKL (a substrate for Abl; Zipfel, et al. (2004) supra), Ser-241 PDK1 (a substrate for PI3K), Tyr-1022/1023 JAK1 (a substrate for JAK3; Wang, et al. (2003) supra), Ser-421 Huntingtin (a substrate for SGK; Rangone, et al. (2004) supra), Tyr-783 PLC (a substrate for TrkB; Middlemas, et al. (1994) supra), and Ser-338 cRaf (a substrate for PAK3; King, et al. (1998) supra).

For a further data set, the system named is olfactory bulb cells. Briefly: In vivo TUNEL in olfactory bulb after repeated intranasal delivery. Also noted: species or system C57BL/6 mice. The note with it: repeated intranasal treatment for three days. An excerpt: To confirm the apoptotic inducing effect of ZaTa in vivo, ZaTa was delivered to the mouse brain via the nasal cavity, a minimally invasive procedure compared to the stereotactic surgery. Intranasal delivery of compounds into the brain is an efficient and effective way for local delivery of compounds, without the need for passing the blood brain barriers, the major obstacle for studying the effect of different inhibitors/activators in CNS (Vyas, et al. (2005) Curr. Drug Deliv. 2:165-175; Hrafnkelsdottir, et al. (2005) Biol. Pharm. Bull. 28:1038-1042). […] This was visualized by double labeling of the brain sections with fluorescent TUNEL and a nuclear marker.
Depending on the intended use, a pharmaceutical composition of the invention can be administered by any suitable means, including parenteral injection (such as intraperitoneal, subcutaneous, intratumoral or intramuscular injection), orally or by topical application (e.g., transdermal or via a mucosal surface). By pharmaceutically acceptable formulation is meant, a composition or formulation that allows for the effective distribution of the nucleic acid molecules of the instant invention in the physical location most suitable for their desired activity. […]

Where no end group is shown, it is not given here. red fluorescent dye = not defined here

T1 sequence (P23443 whole entry): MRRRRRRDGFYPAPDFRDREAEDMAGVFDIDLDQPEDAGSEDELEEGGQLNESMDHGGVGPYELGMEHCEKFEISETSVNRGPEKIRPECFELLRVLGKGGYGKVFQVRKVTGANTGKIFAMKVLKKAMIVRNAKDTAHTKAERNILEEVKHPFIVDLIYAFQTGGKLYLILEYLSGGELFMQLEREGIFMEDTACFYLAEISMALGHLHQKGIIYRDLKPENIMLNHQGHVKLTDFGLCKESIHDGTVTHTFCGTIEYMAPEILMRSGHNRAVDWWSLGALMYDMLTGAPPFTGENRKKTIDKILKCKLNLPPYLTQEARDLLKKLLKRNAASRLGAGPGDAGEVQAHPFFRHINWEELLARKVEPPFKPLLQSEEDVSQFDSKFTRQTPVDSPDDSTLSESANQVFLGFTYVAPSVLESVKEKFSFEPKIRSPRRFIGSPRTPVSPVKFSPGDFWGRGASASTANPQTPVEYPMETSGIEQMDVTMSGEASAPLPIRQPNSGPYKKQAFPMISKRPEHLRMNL

Consider AKRVKGRTWTLCGTPEY [ZaTa], for which the “distribution and absorption throughout brain tissue” value in data set [1] is “efficient distribution and absorption”. The “inhibition of p70S6K in cells” value at p70S6K was “could inhibit p70S6K”.

For “labeled ZaTa: ZaTa peptide labeled with a red fluorescent dye at its N-terminus ({red fluorescent dye}-AKRVKGRTWTLCGTPEY; reading uncertain)”, the “number of apoptotic cells in olfactory bulb” value with olfactory bulb cells is reported as “significantly increased”.
